Laboratory results published in patent US9636376B2, “Stable compositions of peptide epoxy ketones” (priority 2012, dated 2017).
Values after ≈ are worked out from the molar mass of the structure shown.

Assays:
[1] = Effect of pH on saturation solubility of carfilzomib; format: physicochemical; details: aqueous buffer, thermodynamic from solid
Description: For instance, a buffer is typically used in the liquid pharmaceutical compositions of the invention to control the pH.

[2] = test system: solid and hematologic tumor cells; details: cited from earlier work
[3] = test system: proteasome; details: blood and tissue; cited from earlier work
[4] = test system: models of multiple myeloma, hematologic, and solid tumors; details: cited from earlier work

CC(C)C[C@H](NC(=O)[C@H](CCc1ccccc1)NC(=O)CN1CCOCC1)C(=O)N[C@@H](Cc1ccccc1)C(=O)N[C@@H](CC(C)C)C(=O)[C@@]1(C)CO1 [Carfilzomib, (2S)—N—((S)-1-((S)-4-methyl-1-((R)-2-methyloxiran-2-yl)-1-oxopentan-2-ylcarbamoyl)-2-phenylethyl)-2-((S)-2-(2-morpholinoacetamido)-4-phenylbutanamido)-4-methylpentanamide]
solubility ([1]; 1% L-cysteine solution, pH 1.7 (1% L-Cysteine)): 459 µg/mL (≈ 638 µM) | solubility ([1]; pH 3.5 (15 mM Acetate Buffer)): 125 µg/mL (≈ 174 µM) | solubility ([1]; pH 5.0 (15 mM Citrate Buffer)): 9 µg/mL (≈ 12.5 µM) | solubility ([1]; pH 7.0 (15 mM Phosphate Buffer)): 5 µg/mL (≈ 6.95 µM) | Activities in vitro in tumor cells [2]: antiproliferative and proapoptotic activities | Effect on proteasome activity [3]: inhibit proteasome activity | Effect on tumor growth [4]: delay tumor growth
